The values below are quoted from earlier work in patent US20150150814A1, “STABLE ORAL PHARMACEUTICAL COMPOSITION OF SOLIFENACIN” (RANBAXY LABORATORIES LIMITED, priority 2013, published 2015).

For the series the following is noted: water at room temperature.

For `O=C(O[C@H]1CN2CCC1CC2)N1CCc2ccccc2[C@@H]1c1ccccc1` [Solifenacin succinate, (1S)-(3R)-1-azabicyclo [2.2.2] oct-3-yl3,4-dihydro-1-phenyl-2(1H)iso-quinolinecarboxylate], the solubility in water entry is reported as “freely soluble”.
